The record followed here is patent US20240368150A1 (Hoffmann-La Roche Inc., priority 2021, published 2024).

Assay [1] has as its system primary human T-cells. The assay is described as follows: Proliferation assay after 5 days (CellTiter-Glo, CD3 stimulation; PBS counter screen). The conditions noted are these: Homo sapiens, T-cell, 120 h, CD3 stimulation; for Emax: 5 days, normalized to reference compound A1 as stimulator control = 100%, DMSO neutral control, read-out: Emax proliferation (% activation); for pEC50: primary human T-cells, CellTiter-Glo after 5 days, EC50 of fitted sigmoidal curve, read-out: Tcell Proliferation CD3 EC50. Type of assay: cell-based. Put shortly:
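After compound addition to medium-only plates, cells are cultured 5 days, equilibrated to room temperature, mixed with an equal volume of CellTiter-Glo 2.0 and rocked 15 min before luminescence is read. Signal reflects ATP content, taken as proportional to cell number.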
(Cellular ATP, detected with luciferase, serves as a proxy for viable cell number.)

The subject of assay [2] is primary human T-cells.

pEC50: −log10 of the molar value. Like-named read-outs stand apart in the source and are kept apart here. Where only a bound is given, the exact number is not on record here.

On to `CC(C)(C)c1nnc(-c2cc3c(cc2F)S(=O)(=O)C[C@H](N)C(=O)N3Cc2ccc(CN)cc2)o1` [Example 226, (3R)-3-amino-5-[[4-(aminomethyl)phenyl]methyl]-7-(5-tert-butyl-1,3,4-oxadiazol-2-yl)-8-fluoro-1,1-dioxo-2,3-dihydro-1λ^6,5-benzothiazepin-4-one], for which the Emax in the assay on primary human T-cells [1] turned out to be 25%. The pEC50 with primary human T-cells [1] and in the assay on primary human T-cells [2] was under 4.70 throughout.

As to `CC(C)(C)c1nnc(-c2cc3c(cc2F)S(=O)(=O)C[C@H](N)C(=O)N3Cc2ccccc2Cl)o1` [Example 227, (3R)-3-amino-7-(5-tert-butyl-1,3,4-oxadiazol-2-yl)-5-[(2-chlorophenyl)methyl]-8-fluoro-1,1-dioxo-2,3-dihydro-1λ^6,5-benzothiazepin-4-one], in the assay on primary human T-cells [1], the Emax was 39% and the pEC50 was under 4.70. This molecule showed a pEC50 with primary human T-cells [2] of under 4.70.

As to `COc1ccc(CN2C(=O)[C@@H](N)CS(=O)(=O)c3cc(F)c(-c4nnc(C(C)(C)C)o4)cc32)nc1` [Example 228, (3R)-3-amino-7-(5-tert-butyl-1,3,4-oxadiazol-2-yl)-8-fluoro-5-[(5-methoxy-2-pyridyl)methyl]-1,1-dioxo-2,3-dihydro-1λ^6,5-benzothiazepin-4-one], in the assay with primary human T-cells [1], the Emax is 112% and the pEC50 is 5.76. In addition, the pEC50 with primary human T-cells [2] was 5.28.

With `CC(C)(C)c1nnc(-c2cc3c(cc2F)S(=O)(=O)C[C@H](N)C(=O)N3Cc2ccc(S(C)(=O)=O)cc2)o1` [Example 229, (3R)-3-amino-7-(5-tert-butyl-1,3,4-oxadiazol-2-yl)-8-fluoro-5-[(4-methylsulfonylphenyl)methyl]-1,1-dioxo-2,3-dihydro-1λ^6,5-benzothiazepin-4-one], in the assay with primary human T-cells [1], the Emax is 116% and the pEC50 is 5.78. Further, the pEC50 in the assay with primary human T-cells [2] was 5.61.

Turning to `COc1ccc(CN2C(=O)[C@@H](N)CS(=O)(=O)c3cc(F)c(-c4nnc(C(C)(C)C)o4)cc32)cc1` [Example 230], in the assay on primary human T-cells [1], the Emax is 119% and the pEC50 was 7.05. This molecule showed a pEC50 in the assay with primary human T-cells [2] of 6.98.

`CC(C)(C)c1nnc(-c2cc3c(cc2F)S(=O)(=O)C[C@H](N)C(=O)N3Cc2ccc(F)cc2)o1` [Example 231, (3R)-3-amino-7-(5-tert-butyl-1,3,4-oxadiazol-2-yl)-8-fluoro-5-[(4-fluorophenyl)methyl]-1,1-dioxo-2,3-dihydro-1\6,5-benzothiazepin-4-one]: the Emax in the assay with primary human T-cells [1] worked out at 114%. The figures for the pEC50 in the assay on primary human T-cells [1] and in the assay with primary human T-cells [2] were 6.59 and 6.53, respectively.

Regarding `CC(C)(C)c1nnc(-c2cc3c(cc2F)S(=O)(=O)C[C@H](N)C(=O)N3Cc2ccc(Oc3ccccc3)cc2)o1` [Example 233], in the assay on primary human T-cells [1], the Emax is 127%. The pEC50 in the assay with primary human T-cells [1] was 7.06; in the assay on primary human T-cells [2] it was 7.02.

For the molecule `CC(C)(C)c1nnc(-c2cc3c(cc2F)S(=O)(=O)C[C@H](N)C(=O)N3Cc2ccc(OCCO)cc2)o1` [Example 234, (3R)-3-amino-7-(5-tert-butyl-1,3,4-oxadiazol-2-yl)-8-fluoro-5-[[4-(2-hydroxyethoxy)phenyl]methyl]-1,1-dioxo-2,3-dihydro-1λ^6,5-benzothiazepin-4-one], in the assay on primary human T-cells [1], the Emax came to 130% and the pEC50 is 5.92. Moreover, in the assay with primary human T-cells [2], the pEC50 was 5.27.

In the case of `CC(=O)NCCCCCCCCCCCOc1ccc(CN2C(=O)[C@@H](N)CS(=O)(=O)c3cc(F)c(-c4nnc(C(C)(C)C)o4)cc32)cc1` [Example 235, N-[11-[4-[[(3R)-3-amino-7-(5-tert-butyl-1,3,4-oxadiazol-2-yl)-8-fluoro-1,1,4-trioxo-2,3-dihydro-1λ^6,5-benzothiazepin-5-yl]methyl]phenoxy]undecyl]acetamide], the Emax in the assay with primary human T-cells [1] was 108%. Moreover, the pEC50 was 7.33 in the assay on primary human T-cells [1] and 6.77 with primary human T-cells [2].

For the molecule `CC(C)(C)c1nnc(-c2cc3c(cc2F)S(=O)(=O)C[C@H](N)C(=O)N3Cc2ccc(OCC(N)=O)cc2)o1` [Example 236, 2-[4-[[(3R)-3-amino-7-(5-tert-butyl-1,3,4-oxadiazol-2-yl)-8-fluoro-1,1,4-trioxo-2,3-dihydro-1λ^6,5-benzothiazepin-5-yl]methyl]phenoxy]acetamide], in the assay with primary human T-cells [1], the Emax is 98% and the pEC50 is 5.49. Also, the pEC50 with primary human T-cells [2] was 5.49.

`CC(C)(C)c1nnc(-c2cc3c(cc2F)S(=O)(=O)C[C@H](N)C(=O)N3Cc2cnc(C3CC3)nc2)o1` [Example 238, (3R)-3-amino-7-(5-tert-butyl-1,3,4-oxadiazol-2-yl)-5-[(2-cyclopropylpyrimidin-5-yl)methyl]-8-fluoro-1,1-dioxo-2,3-dihydro-1λ^6,5-benzothiazepin-4-one]: in the assay with primary human T-cells [1], the Emax was determined as 102% and the pEC50 is 5.51. The pEC50 in the assay on primary human T-cells [2] is 6.11.

As to `CC(C)(C)c1nnc(-c2cc3c(cc2F)S(=O)(=O)C[C@H](N)C(=O)N3Cc2ccc(C3(O)COC3)cc2)o1` [Example 239, (3R)-3-amino-7-(5-tert-butyl-1,3,4-oxadiazol-2-yl)-8-fluoro-5-[[4-(3-hydroxyoxetan-3-yl)phenyl]methyl]-1,1-dioxo-2,3-dihydro-1λ^6,5-benzothiazepin-4-one], the Emax in the assay on primary human T-cells [1] came to 69%. The pEC50 with primary human T-cells [1] is 5.29; in the assay on primary human T-cells [2] it was 5.25.

`CC(C)(C)c1nnc(-c2cc3c(cc2F)S(=O)(=O)C[C@H](N)C(=O)N3Cc2ccc(S(C)(=O)=O)cc2F)o1` [Example 240, (3R)-3-amino-7-(5-tert-butyl-1,3,4-oxadiazol-2-yl)-8-fluoro-5-[(2-fluoro-4-methylsulfonyl-phenyl)methyl]-1,1-dioxo-2,3-dihydro-1λ^6,5-benzothiazepin-4-one]: in the assay on primary human T-cells [1], the Emax amounted to 74% and the pEC50 was 5.26. The same molecule gave a pEC50 in the assay on primary human T-cells [2] of 5.19.

Consider `CCc1coc(CN2C(=O)[C@@H](N)CS(=O)(=O)c3cc(F)c(-c4nnc(C(C)(C)C)o4)cc32)n1` [Example 241, (3R)-3-amino-7-(5-tert-butyl-1,3,4-oxadiazol-2-yl)-5-[(4-ethyloxazol-2-yl)methyl]-8-fluoro-1,1-dioxo-2,3-dihydro-1λ^6,5-benzothiazepin-4-one], for which, in the assay on primary human T-cells [1], the Emax was found to be 73% and the pEC50 is 5.53. The molecule further had a pEC50 with primary human T-cells [2] of under 5.00.

Regarding `CC(C)(C)c1nnc(-c2cc3c(cc2F)S(=O)(=O)C[C@H](N)C(=O)N3Cc2ccc(S(C)(=O)=O)c(F)c2)o1` [Example 242, (3R)-3-amino-7-(5-tert-butyl-1,3,4-oxadiazol-2-yl)-8-fluoro-5-[(3-fluoro-4-methylsulfonyl-phenyl)methyl]-1,1-dioxo-2,3-dihydro-1λ^6,5-benzothiazepin-4-one], in the assay with primary human T-cells [1], the Emax turned out to be 92% and the pEC50 was 5.47. For the same molecule, the pEC50 in the assay with primary human T-cells [2] is 5.32.

As to `CC(C)(C)c1nnc(-c2cc3c(cc2F)S(=O)(=O)C[C@H](N)C(=O)N3Cc2ccc(OCC(F)(F)F)cc2)o1` [Example 243, (3R)-3-amino-7-(5-tert-butyl-1,3,4-oxadiazol-2-yl)-8-fluoro-1,1-dioxo-5-[[4-(2,2,2-trifluoroethoxy)phenyl]methyl]-2,3-dihydro-1λ^6,5-benzothiazepin-4-one], in the assay on primary human T-cells [1], the Emax was determined as 129% and the pEC50 is 6.61. In addition, the pEC50 in the assay with primary human T-cells [2] was 6.04.

Consider `CC(C)(C)c1nnc(-c2cc3c(cc2F)S(=O)(=O)C[C@H](N)C(=O)N3Cc2ccc(Cl)c(F)c2)o1` [Example 245, (3R)-3-amino-7-(5-tert-butyl-1,3,4-oxadiazol-2-yl)-5-[(4-chloro-3-fluoro-phenyl)methyl]-8-fluoro-1,1-dioxo-2,3-dihydro-1λ^6,5-benzothiazepin-4-one], for which, in the assay with primary human T-cells [1], the Emax turned out to be 127% and the pEC50 is 6.99. Further, the pEC50 in the assay on primary human T-cells [2] is 7.04.

In the case of `CC(C)(C)c1nnc(-c2cc3c(cc2F)S(=O)(=O)C[C@H](N)C(=O)N3Cc2ccc(F)c(F)c2)o1` [Example 246, (3R)-3-amino-7-(5-tert-butyl-1,3,4-oxadiazol-2-yl)-5-[(3,4-difluorophenyl)methyl]-8-fluoro-1,1-dioxo-2,3-dihydro-1λ^6,5-benzothiazepin-4-one], the Emax in the assay with primary human T-cells [1] came out at 110%. Moreover, the pEC50 in the assay on primary human T-cells [1] is 6.35; in the assay on primary human T-cells [2] it was 6.47.

On to `CC(C)Oc1ccc(CN2C(=O)[C@@H](N)CS(=O)(=O)c3cc(F)c(-c4nnc(C(C)(C)C)o4)cc32)nc1` [Example 247, (3R)-3-amino-7-(5-tert-butyl-1,3,4-oxadiazol-2-yl)-8-fluoro-5-[(5-isopropoxy-2-pyridyl)methyl]-1,1-dioxo-2,3-dihydro-1λ^6,5-benzothiazepin-4-one], for which, in the assay on primary human T-cells [1], the Emax is 79% and the pEC50 was 6.12. Also, in the assay on primary human T-cells [2], the pEC50 is 6.49.

`CC(C)(C)c1nnc(-c2cc3c(cc2F)S(=O)(=O)C[C@H](N)C(=O)N3Cc2ccc(OC3CCCC3)nc2)o1` [Example 248, (3R)-3-amino-7-(5-tert-butyl-1,3,4-oxadiazol-2-yl)-5-[[6-(cyclopentoxy)-3-pyridyl]methyl]-8-fluoro-1,1-dioxo-2,3-dihydro-1λ^6,5-benzothiazepin-4-one]: in the assay on primary human T-cells [1], the Emax was found to be 157% and the pEC50 was 6.36. In the assay with primary human T-cells [2], this molecule gave a pEC50 of 6.85.

For the molecule `CC(C)(C)c1nnc(-c2cc3c(cc2F)S(=O)(=O)C[C@H](N)C(=O)N3Cc2ccc(Cl)nn2)o1` [Example 251, (3R)-3-amino-7-(5-tert-butyl-1,3,4-oxadiazol-2-yl)-5-[(6-chloropyridazin-3-yl)methyl]-8-fluoro-1,1-dioxo-2,3-dihydro-1λ^6,5-benzothiazepin-4-one], in the assay on primary human T-cells [1], the Emax was found to be 66% and the pEC50 was 5.28. For the same molecule, in the assay with primary human T-cells [2], the pEC50 is under 5.00.

Take `CC(C)(C)c1nnc(-c2cc3c(cc2F)S(=O)(=O)C[C@H](N)C(=O)N3Cc2cncc(Cc3ccc(Cl)cc3)c2)o1` [Example 252, (3R)-3-amino-7-(5-tert-butyl-1,3,4-oxadiazol-2-yl)-5-[[5-[(4-chlorophenyl)methyl]-3-pyridyl]methyl]-8-fluoro-1,1-dioxo-2,3-dihydro-1λ^6,5-benzothiazepin-4-one]: in the assay with primary human T-cells [1], the Emax is 72% and the pEC50 is 5.32. For the same molecule, the pEC50 in the assay with primary human T-cells [2] was 5.94.
